What was measured:
MCF10A = assay: Growth inhibition, normal mammary epithelial MCF10A; format: cell-based; settings: for IC50: Homo sapiens, MCF-10A, Table 2, Epithelial, MCF10A, read-out: cell growth suppression; for growth inhibitory effect on non-tumorgenic epithelial cells: data not shown
Description: (§1) Cell lines and establishment of stable cell lines. Human breast cancer cell lines MDA-MB-231 and MDA-MB-468, osteosarcoma line U20S, cervical adenocarcinoma line HeLa, and normal skin fibroblast Hs27 were maintained in DMEM medium (Invitrogen, Grand Island, N.Y.) supplemented 10% fetal bovine serum (FBS) and 1% penicillin-streptomycin. The leukemia cell line K562 and glioblastoma cell line T98G were grown in RPMI 1640 supplemented 10% FBS and 1% penicillin-streptomycin. Normal mammary gland epithelial cell line MCF10A was cultured in DMEM/F12 (50:50) plus 5% horse serum, 0.1 μg/mL cholera toxin, 10 μg/mL insulin, 0.5 μg/mL hydrocortisone, and 20 ng/mL epidermal growth factor. To establish MDA-MB-468 cells that stably expressed each individual GFP-Hec1 deletion construct described above, cells were infected with retrovirus expressing GFP-Hec1 WT, GFP-Hec1 W395A and GFP-Hec1 WLK/AAA, and were selected with 2 μg/ml puromycin.

HeLa cells [1] = assay: Apoptosis assay, flow cytometry with Annexin-V staining; format: cell-based, human; settings: after 48 hours, DMSO 1.8%
Description: (§2) INH-triggered mitotic catastrophe. […] Error bars represent SE, n=>200 per sample in FIG. 3A. […] Error bars represent SE n=200 in FIG. 3B. Over time, the accumulation of chromosomal and spindle abnormalities led to cell death.
The apoptosis assay was conducted as follows. 1×10^6 cells were collected and resuspended in 100 μl binding buffer (10 mM HEPES, pH 7.4; 140 mM NaCl; 2.5 mM CaCl2) after INH or control treatment for 48 hrs. To the collected cells was added 5 μl of Annexin V-FITC and 1 μl of propidium iodide (PI, […]). The cells were then gently vortexed and incubated for 15 minutes at room temperature in the dark. The samples were analyzed by flow cytometry after an additional 400 μl of binding buffer was added to each tube.

HeLa cells [2] = assay: Mitotic abnormalities in HeLa cells; format: cell-based, human; settings: for chromosomal misalignment: 24 hrs of treatment, versus DMSO
Description: as §2

Nek2 [3] = assay: Nek2 protein level in treated HeLa cells, western blot; format: cell-based; settings: dose series
Description: (§3) INH-induced Nek2 degradation; INH-inhibition of Hec1 phosphorylation by Nek2. […] To evaluate whether INH treatment affected cell cycle profile or Nek2 mRNA level, we performed FACS and real-time PCR analysis.
(§4) Protein extraction and western blot analysis. The protein extractions and western blot analyses of Examples 4-6 were conducted as follows. Cell extracts were prepared and equal amounts of protein were separated by SDS-PAGE (10% w/v gel) followed by electrophoretic transfer to PVDF membranes (Millipore, Billerica, Mass.). After blocking with 5% w/v powdered non-fat milk, the membrane was incubated with different antibodies for overnight at 4° C. and treated for 1 hr with horseradish peroxidase-conjugated goat anti-mouse IgG and goat anti-rabbit IgG antibodies (GeneTex, Irvine, Calif.). ECL detection of the horseradish peroxidase reaction was performed according to the manufacturer's instructions (Millipore, Billerica, Mass.). Protein signal was measured on a LAS 4000 mini Imaging System (Fujifilm, Valhalla, N.Y.).

[4] = system: MDA-MB-468 breast cancer cells tumor xenografts; assay: Breast tumor xenograft model; format: in vivo, athymic nude mice; settings: versus vehicle; for tumor growth rate: thrice-weekly i.p., 10 or 50 mg/kg INH41, 5 or 20 mg/kg INH154, 6.5 weeks; for percentage of proliferating tumor cells (BrdU staining) / phosphorylation of Hec1 at S165 in tumors: tumors harvested one week after last injection
Description: INH inhibition of breast tumor growth in xenograft model. We performed in vivo xenograft mouse experiments to examine the efficacy of INHs in accordance with guidelines and protocols of the University of California at Irvine Animal Research Committee. MDA-MB-468 breast cancer cells (2×10^6) were inoculated into mammary fat pads of 6-8 week old athymic nude mice mice (nu/nu; Harlan Sprague-Dawley Inc., Indianapolis, Ind.) to form tumor xenografts. […] Administration of control and INH treatments was carried out for 6.5 weeks and tumor sizes were measured. Mice body weights and tumor sizes were measured twice weekly. Tumor volume was calculated as (length×width^2)/2 (in mm), and data were presented as mean tumor volume±SEM.
One week after the last injections were administered, mice were sacrificed and their tumors were harvested for immunohistochemistry analysis. […] Error bars represent SE (n=4) in FIGS. 2C and 2D.
Immunohistochemistry analysis was conducted as follows. Paraffin-embedded tumor sections (5 μm) were incubated with primary antibody, counterstained with hematoxylin, and detected using a LSAB™ kit (DakoCytomation) according to the manufacturer's instructions. BrdU antibody was purchased from GeneTex, Irvine, Calif. and Hec1 pS165 antibody was prepared as described in Wei et al. Phosphorylation of the Ndc80 complex protein, HEC1, by Nek2 kinase modulates chromosome alignment and signaling of the spindle assembly checkpoint. Molecular biology of the cell 22, 3584-3594 (2011), hereby incorporated by reference in its entirety.

PLK1 = PLK1 expression in treated HeLa cells, western blot; format: cell-based; settings: dose series
Description: as §3, §4

K562 = assay: Cancer cell growth inhibition, K562 leukemia; format: cell-based; settings: Homo sapiens, Table 2, Leukemia, read-out: cancer cell growth suppression
Description: as §1

cyclin B1 = assay: Cyclin B1 level in treated HeLa cells, western blot; format: cell-based; settings: dose series
Description: as §3, §4

Nek2 [5] = biological target: T1, Nek2 (Homo sapiens, UniProt P51955); assay: Biotin-conjugated INH pull-down, Nek2; format: binding
T1 construct: endogenous in cells; host or cells: HeLa
T1 sequence (P51955 1-445): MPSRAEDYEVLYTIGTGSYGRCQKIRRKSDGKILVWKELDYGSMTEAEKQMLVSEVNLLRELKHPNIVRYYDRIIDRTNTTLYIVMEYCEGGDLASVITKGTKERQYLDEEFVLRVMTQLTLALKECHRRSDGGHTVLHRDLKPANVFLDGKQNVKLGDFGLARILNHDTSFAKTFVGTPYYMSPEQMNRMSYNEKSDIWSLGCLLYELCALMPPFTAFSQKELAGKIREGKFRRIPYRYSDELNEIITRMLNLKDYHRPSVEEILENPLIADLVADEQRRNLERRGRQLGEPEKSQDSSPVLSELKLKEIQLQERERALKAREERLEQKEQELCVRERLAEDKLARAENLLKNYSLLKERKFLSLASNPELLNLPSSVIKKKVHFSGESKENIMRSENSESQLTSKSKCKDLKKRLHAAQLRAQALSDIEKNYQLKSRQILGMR

T98G = assay: Cancer cell growth inhibition, T98G glioblastoma; format: cell-based; settings: Homo sapiens, Table 2, Glioblastoma, read-out: cancer cell growth suppression
Description: as §1

U2OS = assay: Cancer cell growth inhibition, U2OS osteosarcoma; format: cell-based; settings: Homo sapiens, Table 2, Osteosarcoma, read-out: cancer cell growth suppression
Description: as §1

MDA-MB-231 = assay: Cancer cell growth inhibition, MDA-MB-231; format: cell-based; settings: Homo sapiens, Table 2, Breast adenocarcinoma, read-out: cancer cell growth suppression
Description: as §1

Row | Compound | IC50 (MCF10A) | growth inhibitory effect on non-tumorgenic epithelial cells (MCF10A) | percentage of apoptotic cells (HeLa cells [1]) | chromosomal misalignment (HeLa cells [2]) | Nek2 degradation, dose dependence (Nek2 [3]) | tumor growth rate [4] | percentage of proliferating tumor cells (BrdU staining) [4] | phosphorylation of Hec1 at S165 in tumors [4] | expression of PLK1 (PLK1) | IC50 (K562) | change in cyclin B1 (cyclin B1) | interaction with Nek2 in pull-down (Nek2 [5]) | IC50 (T98G) | IC50 (U2OS) | IC50 (MDA-MB-231) | multipolar spindle configurations in the mitotic population (HeLa cells [2]; time course)
1 | Cc1cc(N2CCCCC2)cc(C)c1-c1csc(NC(=O)c2ccncc2)n1 [INH154, N-(4-(2,6-Dimethyl-4-(piperidin-1-yl)phenyl)thiazol-2-yl)isonicotinamide] | 36000 nM | Neither INH41 nor INH154 had significant growth inhibitory effects | 67.6% | increased chromosomal misalignment | degraded in a dose-dependent manner | significantly slower | reduced | substantially reduced | not affected | 110 nM | no significant change | Nek2 does not interact | 140 nM | 110 nM | 140 nM | –
2 | Cc1cc(C)c(-c2csc(C(=O)c3ccncc3)n2)c(C)c1 [INH41, (4-mesitylthiazol-2-yl)(pyridin-4-yl)methanone] | 58000 nM | Neither INH41 nor INH154 had significant growth inhibitory effects | 17.4% | increased chromosomal misalignment | degraded in a dose-dependent manner | significantly slower | reduced | substantially reduced | not affected | 620 nM | no significant change | Nek2 does not interact | 860 nM | 630 nM | 400 nM | aggravated in a time-dependent manner
